Experimental data published in patent publication US20120328588A1, “COMPOUND PREPARATION AND ITS USES FOR PREVENTION AND TREATMENT OF HEARING IMPAIRMENT” (The Second Military Medical University of Chinese PLA, priority 2010, published 2012).

Tests used:
[1] = system: guinea pigs exposed to noise; assay: Preventive effect on noise-induced hearing impairment: hearing threshold shift of guinea pigs, drug given two days before noise exposure; assay type: in vivo
Method: Experiments with Hearing Threshold Shift Sixty-four guinea pigs with normal weight and pure white hair were randomly divided into control group, alpha-lipoic acid group, nimodipine group, and compound preparation group. The guinea pigs were exposed to an octave band of noise (OBN) centered at 4 kHz, 115 dB SPL, 4 h per day. Two days before noise exposure, animals in the study groups were administered with the corresponding drug dose as designed, and those in the control group were administered with normal saline (NS). Hearing threshold shift of the animals was determined at different intervals of noise exposure in different groups. The synergistic effect of alpha-lipoic acid and nimodipine on regulating hearing threshold shift was observed and analyzed using q test.
(§1) Being less than 20 dB was considered as an effective value. The synergistic effect of alpha-lipoic acid and nimodipine was analyzed using q test. Pla=2/8 means that there were 8 guinea pigs in the alpha-lipoic acid group, within which 2 were effective, and the remaining 6 were invalid. The mean of the rest was analogous to Pla=2/8.

[2] = system: guinea pigs exposed to noise; assay: Therapeutic effect on noise-induced hearing impairment: hearing threshold shift of guinea pigs, drug given intravenously within 7 days after noise exposure; assay type: in vivo
Method: Eighty guinea pigs with normal weight and pure white hair were randomly divided into control group, alpha-lipoic acid group, nimodipine group, and compound preparation group. The animals were exposed to an octave band of noise (OBN) centered at 4 kHz, 115 dB SPL, 4 h per day. Animals in the study groups were administered intravenously with the corresponding drug dose as designed, and those in the control group were administered with NS within 7 days after noise exposure. Hearing threshold shift of the animals was determined at different intervals of noise exposure in different groups. The synergistic effect of alpha-lipoic acid and nimodipine on regulating hearing threshold shift was observed and analyzed using q test.
as §1, with “test. Pla=4/10” for “test. Pla=2/8”, “were 10” for “were 8”, “which 4” for “which 2”, “to Pla=4/10.” for “to Pla=2/8.”

In the case of `O=C(O)CCCCC1CCSS1` (stereo not shown) [LA, 1-2 dithiolane-3-pentanoic acid], the “Mean change in hearing threshold shift” value ([1]; LA 80 mg/kg, at 1st after exposure) is reported as 32.5 dB, the “Mean change in hearing threshold shift” value ([1]; LA 80 mg/kg, at 7th day after exposure) is reported as 20.5 dB and the “P (effective guinea pigs / guinea pigs in group)” value ([1]; LA 80 mg/kg, effective = mean hearing threshold shift less than 20 dB within 7 days of exposure to noise) is reported as “Pla = 2/8”. The “Mean change in hearing threshold shift” value ([2]; LA 80 mg/kg intravenously, 2 weeks after exposure) was 20.5 dB, the “Mean change in hearing threshold shift” value ([2]; LA 80 mg/kg intravenously, at 1st day after exposure) was 32.5 dB and the “P (effective guinea pigs / guinea pigs in group)” value ([2]; LA 80 mg/kg intravenously, effective = mean hearing threshold shift less than 20 dB within 7 days after noise exposure) was “Pla = 4/10”.
For `COCCOC(=O)C1=C(C)NC(C)=C(C(=O)OC(C)C)C1c1cccc([N+](=O)[O-])c1` (stereo not shown) [NIM, Nimodipine], the “Mean change in hearing threshold shift” value ([1]; NIM 2 mg/kg, at 1st after exposure) was 41.0 dB, the “Mean change in hearing threshold shift” value ([1]; NIM 2 mg/kg, at 7th day after exposure) was 23.5 dB and the “Mean change in hearing threshold shift” value ([1]; NIM 4 mg/kg, at 1st after exposure) was 38.5 dB. For the same compound, the “Mean change in hearing threshold shift” value ([1]; NIM 4 mg/kg, at 7th day after exposure) was 24 dB, the “Mean change in hearing threshold shift” value ([1]; NIM 8 mg/kg, at 1st after exposure) was 38 dB and the “Mean change in hearing threshold shift” value ([1]; NIM 8 mg/kg, at 7th day after exposure) was 22.0 dB. For the same compound, the “Mean change in hearing threshold shift” value ([1]; NIM 16 mg/kg, at 1st after exposure) was 36 dB, the “Mean change in hearing threshold shift” value ([1]; NIM 16 mg/kg, at 7th day after exposure) was 22.0 dB and the “Mean change in hearing threshold shift” value ([2]; NIM 2 mg/kg intravenously, 2 weeks after exposure) was 23.5 dB. The “Mean change in hearing threshold shift” value ([2]; NIM 2 mg/kg intravenously, at 1st day after exposure) was 41.0 dB, the “Mean change in hearing threshold shift” value ([2]; NIM 4 mg/kg intravenously, 2 weeks after exposure) was 24 dB and the “Mean change in hearing threshold shift” value ([2]; NIM 4 mg/kg intravenously, at 1st day after exposure) was 38.5 dB. The “Mean change in hearing threshold shift” value ([2]; NIM 8 mg/kg intravenously, 2 weeks after exposure) was 22.0 dB, the “Mean change in hearing threshold shift” value ([2]; NIM 8 mg/kg intravenously, at 1st day after exposure) was 38 dB and the “Mean change in hearing threshold shift” value ([2]; NIM 16 mg/kg intravenously, 2 weeks after exposure) was 22.0 dB. The “Mean change in hearing threshold shift” value ([2]; NIM 16 mg/kg intravenously, at 1st day after exposure) was 36 dB.
